Measurements as given in US5026848A, “Novel generation of heteroaryloxyalkyl heterocycles with antipicornaviruses activities” (Synphar Laboratories Incorporated, priority 1988, dated 1991).
In brackets after ≈: the same amount, converted by molar mass.

Columns and labels:
Enterovirus serotypes = format: cell-based; settings: for All Enterovirus Serotypes (number of serotypes active / tested): Table III, numerator, denominator 7, but 5 for compound 8
Rhinovirus 56 = assay: Anti-rhinovirus activity, cytopathic effect inhibition / neutral red dye uptake, type 56; format: cell-based; settings: Enterovirus, WI-38; Table II; read-out: MIC 50 Rhinovirus Type 56
Rhinovirus 23 = assay: Anti-rhinovirus activity, cytopathic effect inhibition / neutral red dye uptake, type 23; format: cell-based; settings: Enterovirus, WI-38; Table II; read-out: MIC 50 Rhinovirus Type 23
Rhinovirus 53 = assay: Anti-rhinovirus activity, cytopathic effect inhibition / neutral red dye uptake, type 53; format: cell-based; settings: Enterovirus, WI-38; Table II; read-out: MIC 50 Rhinovirus Type 53
Rhinovirus 4 = assay: Anti-rhinovirus activity, cytopathic effect inhibition / neutral red dye uptake, type 4; format: cell-based; settings: Enterovirus, WI-38; Table II; one of seven commonest serotypes; read-out: MIC 50 Rhinovirus Type 4
Rhinovirus 2 = assay: Anti-rhinovirus activity, cytopathic effect inhibition / neutral red dye uptake, type 2; format: cell-based; settings: Enterovirus, WI-38; Table II; one of seven commonest serotypes; read-out: MIC 50 Rhinovirus Type 2
WI38 cells = assay: Toxicity to WI38 cells (change in morphology in / growth inhibition of 25% of the cells); format: cell-based
Rhinovirus 49 = assay: Anti-rhinovirus activity, cytopathic effect inhibition / neutral red dye uptake, type 49; format: cell-based; settings: Enterovirus, WI-38; Table II; read-out: MIC 50 Rhinovirus Type 49
Rhinovirus 39 = assay: Anti-rhinovirus activity, cytopathic effect inhibition / neutral red dye uptake, type 39; format: cell-based; settings: Enterovirus, WI-38; Table I; WI38 cells, 33° C., 3-4 days; read-out: MIC50 Rhinovirus 39
Rhinovirus 63 = assay: Anti-rhinovirus activity, cytopathic effect inhibition / neutral red dye uptake, type 63; format: cell-based; settings: Enterovirus, WI-38; Table II; read-out: MIC 50 Rhinovirus Type 63
Rhinovirus 30 = assay: Anti-rhinovirus activity, cytopathic effect inhibition / neutral red dye uptake, type 30; format: cell-based; settings: Enterovirus, WI-38; Table II; read-out: MIC 50 Rhinovirus Type 30
Coxsacki-B4 = assay: Activity against other picornaviruses, Coxsacki-B4; format: cell-based; settings: Enterovirus, read-out: MIC 50 Cox. B4
Rhinovirus 88 = assay: Anti-rhinovirus activity, cytopathic effect inhibition / neutral red dye uptake, type 88; format: cell-based; settings: Enterovirus, WI-38; Table II; read-out: MIC 50 Rhinovirus Type 88
[1] = system: 20 serotypes of rhinovirus; assay: Anti-rhinovirus activity against a panel of 20 serotypes; settings: Table II; numerator; denominator 20, but 10 for compound 8 and 6 for compound 30
Rhinovirus 31 = assay: Anti-rhinovirus activity, cytopathic effect inhibition / neutral red dye uptake, type 31; format: cell-based; settings: Enterovirus, WI-38; Table II; one of seven commonest serotypes; read-out: MIC 50 Rhinovirus Type 31
Rhinovirus 36 = assay: Anti-rhinovirus activity, cytopathic effect inhibition / neutral red dye uptake, type 36; format: cell-based; settings: Enterovirus, WI-38; Table II; read-out: MIC 50 Rhinovirus Type 36
Rhinovirus 1B = assay: Anti-rhinovirus activity, cytopathic effect inhibition / neutral red dye uptake, type 1B; format: cell-based; settings: Enterovirus, WI-38; Table II; one of seven commonest serotypes; read-out: MIC 50 Rhinovirus Type 1B
Echo-11 = assay: Activity against other picornaviruses, Echo-11; format: cell-based; settings: Enterovirus, read-out: MIC 50 Echo 11
Echo-7 = assay: Activity against other picornaviruses, Echo-7; format: cell-based; settings: Enterovirus, read-out: MIC 50 Echo 7
Rhinovirus 1A = assay: Anti-rhinovirus activity, cytopathic effect inhibition / neutral red dye uptake, type 1A; format: cell-based; settings: Enterovirus, WI-38; Table I; WI38 cells, 33° C., 3-4 days; NA = Not active; read-out: MIC50 Rhinovirus 1A
Coxsacki-A21 = assay: Activity against other picornaviruses, Coxsacki-A21; format: cell-based; settings: Enterovirus, read-out: MIC 50 Cox. A21
Coxsacki-A9 = assay: Activity against other picornaviruses, Coxsacki-A9; format: cell-based; settings: Enterovirus, read-out: MIC 50 Cox. A9
Rhinovirus 29 = assay: Anti-rhinovirus activity, cytopathic effect inhibition / neutral red dye uptake, type 29; format: cell-based; settings: Enterovirus, WI-38; Table II; one of seven commonest serotypes; read-out: MIC 50 Rhinovirus Type 29
Rhinovirus 15 = assay: Anti-rhinovirus activity, cytopathic effect inhibition / neutral red dye uptake, type 15; format: cell-based; settings: Enterovirus, WI-38; Table II; one of seven commonest serotypes; read-out: MIC 50 Rhinovirus Type 15
Rhinovirus 17 = assay: Anti-rhinovirus activity, cytopathic effect inhibition / neutral red dye uptake, type 17; format: cell-based; settings: Enterovirus, WI-38; Table II; read-out: MIC 50 Rhinovirus Type 17
Rhinovirus 86 = assay: Anti-rhinovirus activity, cytopathic effect inhibition / neutral red dye uptake, type 86; format: cell-based; settings: Enterovirus, WI-38; Table II; read-out: MIC 50 Rhinovirus Type 86
Rhinovirus 32 = assay: Anti-rhinovirus activity, cytopathic effect inhibition / neutral red dye uptake, type 32; format: cell-based; settings: Enterovirus, WI-38; Table II; read-out: MIC 50 Rhinovirus Type 32
Coxsacki-B1 = assay: Activity against other picornaviruses, Coxsacki-B1; format: cell-based; settings: Enterovirus, read-out: MIC 50 Cox. B1
Rhinovirus 44 = assay: Anti-rhinovirus activity, cytopathic effect inhibition / neutral red dye uptake, type 44; format: cell-based; settings: Enterovirus, WI-38; Table II; read-out: MIC 50 Rhinovirus Type 44
Polio 1 = assay: microbe, parasite or virus in culture; format: cell-based; settings: Enterovirus, read-out: MIC 50 Polio 1
[2] = Table I, concentration with change in morphology in 25% of WI38 cells

Compound	inhibitory activity against the members of the Entero virus family (Enterovirus serotypes)	All Enterovirus Serotypes (number of serotypes active / tested) (Enterovirus serotypes)	EC50 (Rhinovirus 56) [µg/mL]	IC50 (Rhinovirus 23) [µg/mL]	EC50 (Rhinovirus 53) [µg/mL]	IC50 (Rhinovirus 4) [µg/mL]	IC50 (Rhinovirus 2) [µg/mL]	Toxicity (WI38 cells; [2]) [µg/mL]	Toxicity (WI38 cells; Table II) [µg/mL]	Toxicity (WI38 cells; Table III) [µg/mL]	EC50 (Rhinovirus 49) [µg/mL]	EC50 (Rhinovirus 39) [µg/mL]	EC50 (Rhinovirus 63) [µg/mL]	IC50 (Rhinovirus 30) [µg/mL]	IC50 (Coxsacki-B4) [µg/mL]	EC50 (Rhinovirus 88) [µg/mL]	All Rhinovirus Serotypes (number of serotypes active / tested) [1]	EC50 (Rhinovirus 31) [µg/mL]	EC50 (Rhinovirus 36) [µg/mL]	IC50 (Rhinovirus 1B) [µg/mL]	further results
Cc1csc(CCCCCCCOc2ccc3oc4ccccc4c3c2)n1 [Compound 15]	remarkable inhibitory activity	6	5 (≈ 13.2 µM)	10 (≈ 26.3 µM)	> 25	1 (≈ 2.63 µM)	> 25	50	50	50	> 25	5 (≈ 13.2 µM)	> 25	5 (≈ 13.2 µM)	10 (≈ 26.3 µM)	< 0.5	14	1 (≈ 2.63 µM)	> 25	5 (≈ 13.2 µM)	IC50 (Echo-11): > 25 µg/mL; IC50 (Echo-7): 10 µg/mL (≈ 26.3 µM); EC50 (Rhinovirus 1A): 10 µg/mL (≈ 26.3 µM); IC50 (Coxsacki-A21): 5 µg/mL (≈ 13.2 µM); EC50 (Coxsacki-A9): 1 µg/mL (≈ 2.63 µM); IC50 (Rhinovirus 29): 5 µg/mL (≈ 13.2 µM); IC50 (Rhinovirus 15): 5 µg/mL (≈ 13.2 µM); IC50 (Rhinovirus 17): 5 µg/mL (≈ 13.2 µM); EC50 (Rhinovirus 86): < 0.5 µg/mL; EC50 (Rhinovirus 32): > 25 µg/mL; IC50 (Coxsacki-B1): 25 µg/mL (≈ 65.9 µM); EC50 (Rhinovirus 44): 1 µg/mL (≈ 2.63 µM); EC50 (Polio 1): 5 µg/mL (≈ 13.2 µM)
Cc1csc(CCCCCCOc2ccc3oc4ccccc4c3c2)n1 [Compound 27]	remarkable inhibitory activity	3	5 (≈ 13.7 µM)	5 (≈ 13.7 µM)	10 (≈ 27.4 µM)	25 (≈ 68.4 µM)	> 25	50	50	50	> 25	10 (≈ 27.4 µM)	25 (≈ 68.4 µM)	10 (≈ 27.4 µM)	> 25	> 25	17	10 (≈ 27.4 µM)	> 25	5 (≈ 13.7 µM)	IC50 (Echo-11): > 25 µg/mL; IC50 (Echo-7): > 25 µg/mL; EC50 (Rhinovirus 1A): 10 µg/mL (≈ 27.4 µM); IC50 (Coxsacki-A21): 10 µg/mL (≈ 27.4 µM); EC50 (Coxsacki-A9): 5 µg/mL (≈ 13.7 µM); IC50 (Rhinovirus 29): 25 µg/mL (≈ 68.4 µM); IC50 (Rhinovirus 15): 10 µg/mL (≈ 27.4 µM); IC50 (Rhinovirus 17): 10 µg/mL (≈ 27.4 µM); EC50 (Rhinovirus 86): 1 µg/mL (≈ 2.74 µM); EC50 (Rhinovirus 32): 10 µg/mL (≈ 27.4 µM); IC50 (Coxsacki-B1): 10 µg/mL (≈ 27.4 µM); EC50 (Rhinovirus 44): 10 µg/mL (≈ 27.4 µM); EC50 (Polio 1): > 25 µg/mL
